# Results from PubChem BioAssay AID1963841 (Molecular Pharmacology Branch, DTP, NCI, 2024).
# System: 439559-082-T-J2-PDC spheroid viability
# Assay: Anticancer human tumor 439559-082-T-J2-PDC patient-derived colon adenocarcinoma cell line growth inhibition [POLQ]
# Settings: spheroids with HUVEC and MSC; for IC50: curve of first compound; for viability, T/C: stronger effect = lower value
# In short: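 Patient-derived tumour cells were co-cultured with HUVEC and mesenchymal stem cells as multicellular spheroids at 37 °C. They were treated with POLQ inhibitors (novobiocin, ART-558, RP6685) alone or combined with other agents. Top concentrations were at or near clinical Cmax (otherwise 10 microM; SN-38 at 1 microM), decreasing in half-log steps.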
# [1] = second compound 0.0316 µM, first compound 0.0316 µM
# [2] = second compound 0.0316 µM, first compound 0.1 µM
# [3] = second compound 0.0316 µM, first compound 0.316 µM
# [4] = second compound 0.0316 µM, first compound 1 µM
# [5] = second compound 0.0316 µM, first compound 3.16 µM
# [6] = second compound 0.0316 µM, first compound 10 µM
# [7] = second compound 0.1 µM, first compound 0.0316 µM
# [8] = second compound 0.1 µM, first compound 0.1 µM
# [9] = second compound 0.1 µM, first compound 0.316 µM
# [10] = second compound 0.1 µM, first compound 1 µM
# [11] = second compound 0.1 µM, first compound 3.16 µM
# [12] = second compound 0.1 µM, first compound 10 µM
# [13] = second compound 0.316 µM, first compound 0.0316 µM
# [14] = second compound 0.316 µM, first compound 0.1 µM
# [15] = second compound 0.316 µM, first compound 0.316 µM
# [16] = second compound 0.316 µM, first compound 1 µM
# [17] = second compound 0.316 µM, first compound 3.16 µM
# [18] = second compound 0.316 µM, first compound 10 µM
# [19] = second compound 1 µM, first compound 0.0316 µM
# [20] = second compound 1 µM, first compound 0.1 µM
# [21] = second compound 1 µM, first compound 0.316 µM
# [22] = second compound 1 µM, first compound 1 µM
# [23] = second compound 1 µM, first compound 3.16 µM
# [24] = second compound 1 µM, first compound 10 µM
# [25] = second compound 3.16 µM, first compound 0.0316 µM
# [26] = second compound 3.16 µM, first compound 0.1 µM
# [27] = second compound 3.16 µM, first compound 0.316 µM
# [28] = second compound 3.16 µM, first compound 1 µM
# [29] = second compound 3.16 µM, first compound 3.16 µM
# [30] = second compound 3.16 µM, first compound 10 µM
# [31] = second compound 10 µM, first compound 0.0316 µM
# [32] = second compound 10 µM, first compound 0.1 µM
# [33] = second compound 10 µM, first compound 0.316 µM
# [34] = second compound 10 µM, first compound 1 µM
# [35] = second compound 10 µM, first compound 3.16 µM
# [36] = second compound 10 µM, first compound 10 µM
# 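Note: spheroids exposed to compounds for seven days before readout.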
# 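Throughout, for viability, T/C: 100% = DMSO vehicle control viability.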
compound,measurement,setting,value
CCc1cc2c(N3CCc4c(cc(Cn5ccnc5)cc4-c4cn(C)nc4C(F)(F)F)C3=O)ccnc2c(OC)n1 + COC1C(OC(N)=O)C(O)C(Oc2ccc3c(O)c(NC(=O)c4ccc(O)c(CC=C(C)C)c4)c(=O)oc3c2C)OC1(C)C,IC50,second compound 0.0316 µM,> 10 µM
same,IC50,second compound 0.1 µM,> 10 µM
same,IC50,second compound 0.316 µM,> 10 µM
same,IC50,second compound 1 µM,> 10 µM
same,IC50,second compound 3.16 µM,> 10 µM
same,IC50,second compound 10 µM,> 10 µM
same,"viability, T/C",[1],95.2%
same,"viability, T/C",[2],104%
same,"viability, T/C",[3],97.5%
same,"viability, T/C",[4],95.2%
same,"viability, T/C",[5],91.6%
same,"viability, T/C",[6],95.3%
same,"viability, T/C",[7],100%
same,"viability, T/C",[8],103%
same,"viability, T/C",[9],96.1%
same,"viability, T/C",[10],90.7%
same,"viability, T/C",[11],99.2%
same,"viability, T/C",[12],95.2%
same,"viability, T/C",[13],107%
same,"viability, T/C",[14],107%
same,"viability, T/C",[15],101%
same,"viability, T/C",[16],109%
same,"viability, T/C",[17],91.5%
same,"viability, T/C",[18],90.3%
same,"viability, T/C",[19],110%
same,"viability, T/C",[20],106%
same,"viability, T/C",[21],99.4%
same,"viability, T/C",[22],92.9%
same,"viability, T/C",[23],93.1%
same,"viability, T/C",[24],87.6%
same,"viability, T/C",[25],99.6%
same,"viability, T/C",[26],109%
same,"viability, T/C",[27],99.4%
same,"viability, T/C",[28],92%
same,"viability, T/C",[29],93%
same,"viability, T/C",[30],89.6%
same,"viability, T/C",[31],106%
same,"viability, T/C",[32],93.7%
same,"viability, T/C",[33],99.1%
same,"viability, T/C",[34],101%
same,"viability, T/C",[35],102%
same,"viability, T/C",[36],94.5%
CCc1cc2c(N3CCc4c(cc(Cn5ccnc5)cc4-c4cn(C)nc4C(F)(F)F)C3=O)cc(C)nc2c(OC)n1 + Nc1ccc(C#CCN(C(=O)Cc2ncc(C(F)(F)F)cc2C(F)(F)F)c2ccc(F)cc2)nn1,IC50,second compound 0.0316 µM,> 10 µM
same,IC50,second compound 0.1 µM,> 10 µM
same,IC50,second compound 0.316 µM,> 10 µM
same,IC50,second compound 1 µM,> 10 µM
same,IC50,second compound 3.16 µM,> 10 µM
same,IC50,second compound 10 µM,> 10 µM
same,"viability, T/C",[1],97%
same,"viability, T/C",[2],96.8%
same,"viability, T/C",[3],95.3%
same,"viability, T/C",[4],93.2%
same,"viability, T/C",[5],98.2%
same,"viability, T/C",[6],92.7%
same,"viability, T/C",[7],108%
same,"viability, T/C",[8],87.9%
same,"viability, T/C",[9],89.7%
same,"viability, T/C",[10],95.9%
same,"viability, T/C",[11],91.9%
same,"viability, T/C",[12],96.2%
same,"viability, T/C",[13],102%
same,"viability, T/C",[14],92.2%
same,"viability, T/C",[15],95.7%
same,"viability, T/C",[16],96%
same,"viability, T/C",[17],96.1%
same,"viability, T/C",[18],86.5%
same,"viability, T/C",[19],94.5%
same,"viability, T/C",[20],95%
same,"viability, T/C",[21],89.3%
same,"viability, T/C",[22],85.3%
same,"viability, T/C",[23],104%
same,"viability, T/C",[24],88.6%
same,"viability, T/C",[25],101%
same,"viability, T/C",[26],93.3%
same,"viability, T/C",[27],85.9%
same,"viability, T/C",[28],86.3%
same,"viability, T/C",[29],92.6%
same,"viability, T/C",[30],86.3%
same,"viability, T/C",[31],98.5%
same,"viability, T/C",[32],95.3%
same,"viability, T/C",[33],80.4%
same,"viability, T/C",[34],96%
same,"viability, T/C",[35],89.1%
same,"viability, T/C",[36],86.8%
